Where a name gives a salt, the structure may show the parent alone.
Key:
[1] = test system: C57BL/6 mice; experiment: Lumbar vertebra L5 bone volume by uCT, 30-day i.p. study; type: in vivo, mouse; conditions: measured by uCT; male C57BL/6 mice, daily i.p. 30 days; dose not stated
Protocol: (§1) Four month old male C57BL/6 mice were treated daily with saline vehicle or the sclerostin inhibitor of harmine hydrochloride at 20 (“L”), 40 (“M”) or 90 (“H”) mg/kg (via i.p) for 30 days. Study endpoints included measurement of femur bone volume by pQCT analysis (FIG. 2), and a biochemical marker of bone formation, osteocalcin, measured by EIA Elisa (FIG. 3). […] Lumbar vertebra L5 bone volume increased 2% over saline baseline, as measured by uCT, and 73%, as measured by DEXA Piximus.

[2] = test system: mouse; experiment: Bone formation in treated vs control mice by micro-CT (Example 1); type: in vivo; conditions: test vs control solution, after complete dosing schedule
Excerpt: Compounds useful in the methods of the present invention can be identified via a variety of methods known to one of skill in the art. Several exemplary methods for identifying such antagonists are described herein, including cell-based and in vitro techniques (Journal of Bone and Mineral Research 2006, 21(11), 1738-1749). A general method of identifying SOST antagonists involves evaluating the effects of antagonist candidates on bone formation under controlled conditions. Preferably bone formation is determined using micro-CT techniques on live animals. Preferred animals include rodents, more preferred are primates. Femur, tibia and vertebrae bones are particularly useful subjects for such study.
Briefly, the test animal is treated with a predetermined dose of a SOST antagonist candidate. […]
Once the dosing schedule has been completed, both test and control animals are examined to determine the quantity of bone formation present. […] Where necessary, levels of bone formation can be calculated by determining the volume of bone formation present in each animal. […]
For example, the mouse test animal is treated with a predetermined dose of a SOST antagonist candidate for a complete dosing schedule. […] Once the dosing schedule has been completed, both test and control animals are examined with sacrifice using micro-CT to determine the quantity of bone formation present.

[3] = test system: C57BL/6 mice; experiment: Serum osteocalcin bone formation marker by EIA Elisa, 30-day i.p. study (FIG. 3); type: in vivo, mouse; conditions: male C57BL/6 mice, 40 mg/kg daily i.p. 30 days
Protocol: as §1

[4] = test system: C57BL/6 mice; experiment: Femur bone density/volume by pQCT, 30-day i.p. study (FIG. 2); type: in vivo, mouse; conditions: male C57BL/6 mice, daily i.p. 30 days, 40 mg/kg
Protocol: as §1

[5] = test system: Wnt pathway; experiment: Wnt pathway modulation to promote bone growth (FIG. 1); conditions: doses of 2.5 ng (low), 60 ng (medium), 125 ng (high)
Protocol: For example, the mouse test animal is treated with a predetermined dose of a SOST antagonist candidate for a complete dosing schedule. A control mouse is treated with a control solution, preferably a non-irritating buffer solution or other carrier. Once the dosing schedule has been completed, both test and control animals are examined with sacrifice using micro-CT to determine the quantity of bone formation present.

[6] = test system: C57BL/6 mice; experiment: Lumbar vertebra L5 bone volume by DEXA Piximus, 30-day i.p. study; type: in vivo, mouse; conditions: measured by DEXA Piximus; male C57BL/6 mice, daily i.p. 30 days; dose not stated
Protocol: as §1

COc1ccc2c(c1)[nH]c1c(C)nccc12 [harmine hydrochloride]
Lumbar vertebra L5 bone volume increase over saline baseline [1]: 2%
bone growth (quantity of bone formation by micro-CT) [2]: promoting bone growth
percent increase in serum osteocalcin bone formation marker over saline controls [3]: 65%
increase over baseline for femur bone density [4]: 13%
modulation of the Wnt pathway to promote bone growth [5]: modulating the Wnt pathway to promote bone growth
Lumbar vertebra L5 bone volume increase over saline baseline [6]: 73%
